According to patent US20250353891A1 (MEDIMMUNE LIMITED, priority 2022, published 2025):
Starred links: 1 amine or outer side, 2 acyl side, 3 side chain; linkers in the order of their positions; H or OH if unused. Non-standard residues stand in square brackets, D forms with d. Residues, ends and D or L forms follow the SMILES beside them. Groups on a side chain read outwards from the residue. *: point of attachment. C18 diacid = O=C(O)CCCCCCCCCCCCCCCCC(=O)*; γGlu = O=C(O)[C@H](CCC(=O)[*:2])N[*:1]; αMeF = C[C@](N)(Cc1ccccc1)C(=O)O; AEEA = NCCOCCOCC(=O)O; Aib = CC(C)(N)C(=O)O

Tests used:
[1] = target: human glucagon receptor (hGCGR) (Homo sapiens, UniProt P47871); experiment: cAMP production (HTRF) in CHO cells expressing hGCGR; type: cell-based; design: expressed in transfected cells; details: Table 6, peptides modified at position 17; cAMP in CHO hGCGR cells; geometric mean; read-out: hGluc-R EC50
human glucagon receptor (hGCGR), sequence (P47871 26-477): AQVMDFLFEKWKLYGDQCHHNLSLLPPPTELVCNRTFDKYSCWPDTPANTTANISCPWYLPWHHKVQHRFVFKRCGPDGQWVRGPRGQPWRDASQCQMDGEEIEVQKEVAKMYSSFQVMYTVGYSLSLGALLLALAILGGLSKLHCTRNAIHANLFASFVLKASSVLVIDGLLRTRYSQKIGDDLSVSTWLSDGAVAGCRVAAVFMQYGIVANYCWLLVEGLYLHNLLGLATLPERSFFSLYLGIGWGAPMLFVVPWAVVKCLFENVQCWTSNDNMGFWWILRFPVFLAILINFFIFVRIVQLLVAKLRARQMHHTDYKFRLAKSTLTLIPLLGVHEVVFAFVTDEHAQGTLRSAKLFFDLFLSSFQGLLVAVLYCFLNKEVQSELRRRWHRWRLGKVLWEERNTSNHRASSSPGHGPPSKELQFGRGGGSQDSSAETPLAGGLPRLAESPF
In short: (§1)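 Potency values represent EC50 from 4-parameter logistic curves of HTRF % Delta F signal. Receptor-expressing CHO cells (hGCGR 2×10^5 cells/mL, hGLP-1R 1×10^5 cells/mL) were exposed for 30 min at room temperature before two-step cAMP detection.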

[2] = target: human GLP-1 receptor (hGLP-1R) (Homo sapiens, UniProt P43220); experiment: cAMP production (HTRF) in CHO cells expressing hGLP-1R; type: cell-based; design: expressed in transfected cells; details: for EC50: Table 6, peptides modified at position 17, cAMP in CHO hGLP-1R cells, geometric mean, read-out: hGLP-1R EC50; for % Relative Potency Ratio: Table 6, % GLP-1R activity relative to GLP-1 / % GlucR activity relative to glucagon
human GLP-1 receptor (hGLP-1R), sequence (P43220 24-463): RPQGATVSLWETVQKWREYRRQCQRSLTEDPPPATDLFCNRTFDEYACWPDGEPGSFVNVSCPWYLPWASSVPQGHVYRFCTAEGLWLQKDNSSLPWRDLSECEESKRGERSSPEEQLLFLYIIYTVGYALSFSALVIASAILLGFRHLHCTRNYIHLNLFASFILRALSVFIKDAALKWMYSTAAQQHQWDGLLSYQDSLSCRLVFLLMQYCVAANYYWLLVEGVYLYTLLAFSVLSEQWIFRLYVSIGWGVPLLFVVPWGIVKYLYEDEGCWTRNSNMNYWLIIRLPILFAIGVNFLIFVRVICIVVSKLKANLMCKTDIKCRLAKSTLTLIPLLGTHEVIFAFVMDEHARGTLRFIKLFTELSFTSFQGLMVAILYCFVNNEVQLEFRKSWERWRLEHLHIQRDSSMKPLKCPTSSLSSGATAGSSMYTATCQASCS
In short: as §1

| SMILES | EC50 [1] [pM] | EC50 [2] [pM] | % Relative Potency Ratio [2] |
| --- | --- | --- | --- |
| CC(C)C[C@H](NC(=O)[C@H](CC(C)C)NC(=O)[C@H](Cc1c[nH]c2ccccc12)NC(=O)[C@H](CCCNC(=N)N)NC(=O)[C@@H](NC(=O)[C@H](Cc1ccccc1)NC(=O)[C@H](CC(=O)O)NC(=O)[C@H](CCC(N)=O)NC(=O)[C@H](C)NC(=O)[C@H](CCCNC(=N)N)NC(=O)[C@H](CCCCNC(=O)COCCOCCNC(=O)COCCOCCNC(=O)CC[C@H](NC(=O)CCCCCCCCCCCCCCCCC(=O)O)C(=O)O)NC(=O)[C@H](CO)NC(=O)[C@H](CC(=O)O)NC(=O)[C@H](CC(C)C)NC(=O)[C@](C)(Cc1ccccc1)NC(=O)[C@H](CCCCN)NC(=O)[C@H](CO)NC(=O)[C@@H](NC(=O)[C@H](CC(=O)O)NC(=O)[C@H](CO)NC(=O)[C@@H](NC(=O)[C@H](Cc1ccccc1)NC(=O)[C@@H](NC(=O)CNC(=O)[C@H](CCC(N)=O)NC(=O)C(C)(C)NC(=O)[C@@H](N)Cc1c[nH]cn1)[C@@H](C)O)[C@@H](C)O)C(C)C)C(C)C)C(=O)N[C@@H](CCC(=O)O)C(=O)N[C@@H](C)C(=O)NCC(=O)O [Peptide 179] (H-H[Aib]QGTFTSDVSK[αMeF]LDSK([AEEA-AEEA-γGlu-C18 diacid])RAQDFVRWLLEAG-OH; N-terminus assumed) | 203 | 131 | 3.1 |
| CC(C)C[C@H](NC(=O)[C@H](CC(C)C)NC(=O)[C@H](Cc1c[nH]c2ccccc12)NC(=O)[C@H](CCCNC(=N)N)NC(=O)[C@@H](NC(=O)[C@H](Cc1ccccc1)NC(=O)[C@H](CC(=O)O)NC(=O)[C@H](CCC(N)=O)NC(=O)[C@H](C)NC(=O)[C@H](CCCNC(=N)N)NC(=O)[C@H](CCCCNC(=O)COCCOCCNC(=O)COCCOCCNC(=O)CC[C@H](NC(=O)CCCCCCCCCCCCCCCCC(=O)O)C(=O)O)NC(=O)[C@H](CO)NC(=O)[C@H](CC(=O)O)NC(=O)[C@H](CC(C)C)NC(=O)[C@](C)(Cc1ccccc1)NC(=O)[C@H](CCCCN)NC(=O)[C@H](CO)NC(=O)[C@@H](NC(=O)[C@H](CC(=O)O)NC(=O)[C@H](CO)NC(=O)[C@@H](NC(=O)[C@H](Cc1ccccc1)NC(=O)[C@@H](NC(=O)CNC(=O)[C@H](CCC(N)=O)NC(=O)C(C)(C)NC(=O)[C@@H](N)Cc1c[nH]cn1)[C@@H](C)O)[C@@H](C)O)C(C)C)C(C)C)C(=O)N[C@@H](C)C(=O)NC(C)(C)C(=O)NCC(=O)O [Peptide 180] (H-H[Aib]QGTFTSDVSK[αMeF]LDSK([AEEA-AEEA-γGlu-C18 diacid])RAQDFVRWLLA[Aib]G-OH; N-terminus assumed) | 71.7 | 24.4 | 5.8 |
| CC(C)C[C@H](NC(=O)[C@H](Cc1c[nH]c2ccccc12)NC(=O)[C@H](CCCNC(=N)N)NC(=O)[C@@H](NC(=O)[C@H](Cc1ccccc1)NC(=O)[C@H](CC(=O)O)NC(=O)[C@H](CCC(N)=O)NC(=O)[C@H](C)NC(=O)[C@H](CCCNC(=N)N)NC(=O)[C@H](CCCCNC(=O)COCCOCCNC(=O)COCCOCCNC(=O)CCCCCCCCCCCCCCCCC(=O)O)NC(=O)[C@H](CO)NC(=O)[C@H](CC(=O)O)NC(=O)[C@H](CC(C)C)NC(=O)[C@](C)(Cc1ccccc1)NC(=O)[C@H](CCCCN)NC(=O)[C@H](CO)NC(=O)[C@@H](NC(=O)[C@H](CC(=O)O)NC(=O)[C@H](CO)NC(=O)[C@@H](NC(=O)[C@H](Cc1ccccc1)NC(=O)[C@@H](NC(=O)CNC(=O)[C@H](CCC(N)=O)NC(=O)C(C)(C)NC(=O)[C@@H](N)Cc1c[nH]cn1)[C@@H](C)O)[C@@H](C)O)C(C)C)C(C)C)C(=O)N[C@@H](CC(C)C)C(=O)N[C@@H](CCC(=O)O)C(=O)NC(C)(C)C(=O)NCC(=O)O [Peptide 181] (H-H[Aib]QGTFTSDVSK[αMeF]LDSK([AEEA-AEEA-C18 diacid])RAQDFVRWLLE[Aib]G-OH; N-terminus assumed) | 33.4 | 56 | 1.2 |
| CC(C)C[C@H](NC(=O)[C@H](Cc1c[nH]c2ccccc12)NC(=O)[C@H](CCCNC(=N)N)NC(=O)[C@@H](NC(=O)[C@H](Cc1ccccc1)NC(=O)[C@H](CC(=O)O)NC(=O)[C@H](CCC(N)=O)NC(=O)[C@H](C)NC(=O)[C@H](CCCNC(=N)N)NC(=O)[C@H](CCCCNC(=O)COCCOCCNC(=O)COCCOCCNC(=O)CC[C@H](NC(=O)CCCCCCCCCCCCCCCCC(=O)O)C(=O)O)NC(=O)[C@H](CCCCN)NC(=O)[C@H](CC(=O)O)NC(=O)[C@H](CC(C)C)NC(=O)[C@](C)(Cc1ccccc1)NC(=O)[C@H](CCCCN)NC(=O)[C@H](CO)NC(=O)[C@@H](NC(=O)[C@H](CC(=O)O)NC(=O)[C@H](CO)NC(=O)[C@@H](NC(=O)[C@H](Cc1ccccc1)NC(=O)[C@@H](NC(=O)CNC(=O)[C@H](CCC(N)=O)NC(=O)C(C)(C)NC(=O)[C@@H](N)Cc1c[nH]cn1)[C@@H](C)O)[C@@H](C)O)C(C)C)C(C)C)C(=O)N[C@@H](CC(C)C)C(=O)N[C@@H](CCC(=O)O)C(=O)NC(C)(C)C(=O)NCC(=O)O [Peptide 182] (H-H[Aib]QGTFTSDVSK[αMeF]LDKK([AEEA-AEEA-γGlu-C18 diacid])RAQDFVRWLLE[Aib]G-OH) | 22.6 | 29.1 | 1.5 |
| CC(C)C[C@H](NC(=O)[C@H](Cc1c[nH]c2ccccc12)NC(=O)[C@H](CCCNC(=N)N)NC(=O)[C@@H](NC(=O)[C@H](Cc1ccccc1)NC(=O)[C@H](CC(=O)O)NC(=O)[C@H](CCC(N)=O)NC(=O)[C@H](C)NC(=O)[C@H](CCCNC(=N)N)NC(=O)[C@H](CCCCNC(=O)COCCOCCNC(=O)COCCOCCNC(=O)CC[C@H](NC(=O)CCCCCCCCCCCCCCCCC(=O)O)C(=O)O)NC(=O)[C@H](CO)NC(=O)[C@H](CC(=O)O)NC(=O)[C@H](CC(C)C)NC(=O)[C@](C)(Cc1ccccc1)NC(=O)[C@H](CCCCN)NC(=O)[C@H](CO)NC(=O)[C@@H](NC(=O)[C@H](CC(=O)O)NC(=O)[C@H](CO)NC(=O)[C@@H](NC(=O)[C@H](Cc1ccccc1)NC(=O)[C@@H](NC(=O)CNC(=O)[C@H](CCC(N)=O)NC(=O)C(C)(C)NC(=O)[C@@H](N)Cc1c[nH]cn1)[C@@H](C)O)[C@@H](C)O)C(C)C)C(C)C)C(=O)N[C@@H](CC(C)C)C(=O)N[C@@H](CCC(=O)O)C(=O)NC(C)(C)C(=O)N[C@@H](CCCCN)C(=O)O [Peptide 183] | 81.4 | 23.7 | 6.8 |
| CC(C)C[C@H](NC(=O)[C@H](CC(C)C)NC(=O)[C@H](Cc1c[nH]c2ccccc12)NC(=O)[C@H](CCCNC(=N)N)NC(=O)[C@@H](NC(=O)[C@H](Cc1ccccc1)NC(=O)[C@H](CC(=O)O)NC(=O)[C@H](CCC(N)=O)NC(=O)[C@H](C)NC(=O)[C@H](CCCNC(=N)N)NC(=O)[C@H](CCCCNC(=O)COCCOCCNC(=O)COCCOCCNC(=O)CCCCCCCCCCCCCCCCC(=O)O)NC(=O)[C@H](CCCCN)NC(=O)[C@H](CC(=O)O)NC(=O)[C@H](CC(C)C)NC(=O)[C@](C)(Cc1ccccc1)NC(=O)[C@H](CCCCN)NC(=O)[C@H](CO)NC(=O)[C@@H](NC(=O)[C@H](CC(=O)O)NC(=O)[C@H](CO)NC(=O)[C@@H](NC(=O)[C@H](Cc1ccccc1)NC(=O)[C@@H](NC(=O)CNC(=O)[C@H](CCC(N)=O)NC(=O)C(C)(C)NC(=O)[C@@H](N)Cc1c[nH]cn1)[C@@H](C)O)[C@@H](C)O)C(C)C)C(C)C)C(=O)N[C@@H](C)C(=O)NC(C)(C)C(=O)N[C@@H](CCCCN)C(=O)O [Peptide 184] (H-H[Aib]QGTFTSDVSK[αMeF]LDKK([AEEA-AEEA-C18 diacid])RAQDFVRWLLA[Aib]K-OH; N-terminus assumed) | 29.6 | 22 | 2.7 |
